Data from article PMC5597618, “Identification and characterization of the novel reversible and selective cathepsin X inhibitors” (Scientific Reports, 2017).
Where two headings read alike, the source gives them in different places.

Key:
[1] = target: T1, Cathepsin L (Homo sapiens, UniProt P07711); assay: Ki against cathepsin L (Z-FR-AMC); type: biochemical; settings: SigmaPlot at 3 different substrate concentrations; pH 5.5
T1 construct: made in house; host or cells: E. coli
Procedure: (§1) Recombinant or native human cathepsins were used: recombinant cathepsin X and cathepsin S were expressed in Pichia pastoris, recombinant cathepsins B and L in E. coli, [43], native cathepsin H was isolated from human liver. Assay buffers for determining activities of cathepsins X and L consisted of 100 mM sodium acetate buffer, pH 5.5, for cathepsins H, S and B (endopeptidase activity) of 100 mM phosphate buffer pH 6.8, 6.5 and 6.0, respectively and for cathepsin B (exopeptidase activity) of 60 mM acetate buffer pH 5.0. Each assay buffer contained 0.01% Triton X-100 to prevent false positive inhibition due to aggregation of compounds[45], 5 mM cysteine, 1.5 mM EDTA and 0.1% PEG 8000. Enzymes were activated at 37 °C for 5 min before the assays.
(§2) Ki was determined by measuring the initial rate of hydrolysis at three different substrate concentrations (Supplementary Table S2) in the presence of seven different compound concentrations (0, 20, 40, 60, 80, 100 and 200 μM). 90 μL of the activated cathepsin was added to a black 96-well plate with 5 μL of the substrate and 5 μL of the compound. Formation of the fluorescent degradation product was monitored continuously at 460 nm ± 10 nm with excitation at 380 nm ± 20 nm (for AMC substrates) and, as noted above for Abz substrates, at 37 °C. All measurements were performed twice and in duplicate. The resulting data were analyzed by non-linear regression using the software SigmaPlot®, Enzyme Kinetics Module™ 1.3 and were fitted to the equation v = v max [S]/([S] (1 + [I]/αK i ) + K m (1 + [I]/K i )) (first group of compounds). For Ki determination against cathepsin X for the compounds from the second group, progress curves in the absence and presence of each putative inhibitor were fitted to the reaction mechanism presented in Fig. 3b. In this case the resulting data as well as reactivation curves were fitted to the equation system presented in Fig. 3c using ENZO application. For calculation of kinetic parameters from reaction progress curves the fluorescence coefficient for conversion of arbitrary fluorescence units to concentration was first determined. The fluorescence coefficient was calculated as the slope from the plot of initial substrate concentration vs. height of the plateau of the progress curve after complete hydrolysis of increasing concentrations of substrate, using linear regression.
(§3) Supplementary Table S2. Substrates used for the various cathepsins and their concentrations […]
(§4) Enzyme Substrate Concentration (µM) Reference/Company cathepsin X Abz-FEK(Dnp)-OH 3.25, 6.5, 13 Puzer et al.3 cathepsin B - endopept. Z-RR-AMC 60, 180, 360 Bachem cathepsin B - exopept. Abz-GIVRAK(Dnp)-OH 1, 3, 6 Bachem cathepsin S Z-VVR-AMC 0.5, 1, 1.5 Biomol cathepsin L Z-FR-AMC 0.5, 1, 4 Bachem cathepsin H Z-R-AMC 20, 80, 160 Biomol […]

[2] = target: T2, Cathepsin B (exopeptidase a.) (Homo sapiens, UniProt P07858); assay: Ki against cathepsin B exopeptidase activity (Abz-GIVRAK(Dnp)-OH); type: biochemical; settings: SigmaPlot at 3 different substrate concentrations; pH 5.0
T2 construct: made in house; host or cells: E. coli
Procedure: as §1, §2, §3, §4

[3] = target: T3, cathepsin X (Homo sapiens, UniProt Q9UBR2); assay: Determination of relative inhibition of cathepsin X; type: biochemical; set-up: made in house; host or cells: Pichia pastoris
T3 sequence (Q9UBR2 62-303): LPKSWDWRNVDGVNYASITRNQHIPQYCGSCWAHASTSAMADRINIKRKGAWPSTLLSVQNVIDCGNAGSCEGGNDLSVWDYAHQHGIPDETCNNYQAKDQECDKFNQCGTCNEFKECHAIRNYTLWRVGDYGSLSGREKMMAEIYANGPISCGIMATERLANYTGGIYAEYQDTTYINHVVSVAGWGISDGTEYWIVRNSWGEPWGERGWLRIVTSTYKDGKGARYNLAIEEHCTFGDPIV
Procedure: as §1
Abz-FEK(Dnp)-OH was used as cathepsin X specific substrate in activity assays. 90 μL of activated cathepsin X (20 nM) was added to a black 96-well plate with 5 μL of substrate (3.25 μM final concentration) and 5 μL of the compound (50 μM final concentration). The reaction was monitored continuously at 420 nm ± 10 nm with excitation at 320 nm ± 20 nm and at 37 °C. Relative inhibition (%) was calculated with the equation (1 − v i/v 0) × 100, where v i is reaction velocity in the presence of the compound and v 0 is reaction velocity without the compound.

[4] = target: T4, cathepsin X in lysates of PC-3 cells (Homo sapiens, UniProt Q9UBR2); assay: Cathepsin X activity in PC-3 cell lysates; type: cell-based; settings: 10 μM
T4 construct: endogenous in cells; host or cells: PC-3
T4 sequence (Q9UBR2 62-303): as above
Procedure: To detect cathepsin X activity in cell lysates, 95 μL of activated cell lysates (0.2 mg/mL total protein in assay buffer) were added to a black 96-well plate containing 5 μL of the substrate. The further procedure was the same as above. In some experiments lysates of non-treated cells were pre-incubated with 10 μM of compounds for 30 minutes and then activity was measured as described above.
For testing the enzyme activity in cell lysates, cells were treated with 10 μM of compounds. After 24 hours lysates were prepared in 50 mM Na acetate buffer pH 5.5 with 1 mM EDTA, 100 mM NaCl and 0.25% Triton X-100. Total protein concentration was determined by DC Protein Assay (Bio Rad) according to the instructions.

[5] = target: T5, Cathepsin H (Homo sapiens, UniProt P09668); assay: Ki against cathepsin H (Z-R-AMC); type: biochemical; settings: SigmaPlot at 3 different substrate concentrations; pH 6.8
T5 construct: native cathepsin H was isolated from human liver; from tissue; host or cells: human liver
T5 sequence (P09668 116-335 limits assumed, other chains not shown): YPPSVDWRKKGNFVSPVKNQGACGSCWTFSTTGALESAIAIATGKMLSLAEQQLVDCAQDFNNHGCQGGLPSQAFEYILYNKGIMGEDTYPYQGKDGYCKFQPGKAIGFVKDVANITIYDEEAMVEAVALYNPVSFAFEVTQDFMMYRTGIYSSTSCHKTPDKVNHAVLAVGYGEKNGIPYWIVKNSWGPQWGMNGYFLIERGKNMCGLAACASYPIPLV
Procedure: as §1, §2, §3, §4

[6] = target: T6, Cathepsin S (Homo sapiens, UniProt P25774); assay: Ki against cathepsin S (Z-VVR-AMC); type: biochemical; settings: SigmaPlot at 3 different substrate concentrations; pH 6.5
T6 construct: made in house; host or cells: Pichia pastoris
T6 sequence (P25774 115-331): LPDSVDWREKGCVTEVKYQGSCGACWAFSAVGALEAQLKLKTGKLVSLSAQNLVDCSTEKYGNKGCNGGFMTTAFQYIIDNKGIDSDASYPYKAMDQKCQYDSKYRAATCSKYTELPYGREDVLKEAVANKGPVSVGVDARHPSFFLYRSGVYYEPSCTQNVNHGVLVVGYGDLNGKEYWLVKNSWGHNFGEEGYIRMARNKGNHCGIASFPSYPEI
Procedure: as §1, §2, §3, §4

[7] = target: T7, Cathepsin B (endopeptidase a.) (Homo sapiens, UniProt P07858); assay: Ki against cathepsin B endopeptidase activity (Z-RR-AMC); type: biochemical; settings: SigmaPlot at 3 different substrate concentrations; pH 6.0
T7 construct: made in house; host or cells: E. coli
Procedure: as §1, §2, §3, §4

[8] = tested on: PC-3 cells; assay: Real time cell migration assay (xCELLigence, CIM plates); type: cell-based, human; settings: 10 μM, compound in upper and bottom compartments, vs DMSO; for inhibition at 10 µM: Homo sapiens, PC-3
Procedure: (§5) Human prostate cancer cell line PC-3 cells (obtained from ATCC, Manassas, USA; ATCC Number: CRL-1435) were cultured in F-12 (Gibco) and Advanced DMEM (Gibco) (1:1) with 10% FBS, 1% penicillin/streptomycin and 1% L-glutamine. Rat pheochromocytoma PC-12 cells (obtained from ATCC, Manassas, USA; ATCC Number: CRL-1721) were cultured in Advanced DMEM (Gibco) with 5% FBS, 10% heat-inactivated horse serum, 1% penicillin/streptomycin and 1% L-glutamine.
Cell migration assay was performed on a Real-Time Cell Analyzer Dual Plate (RTCA DP) Instrument, xCELLigence System (ACEA Biosciences). CIM plates were coated with fibronectin (10 μg/ml, BD Biosciences) on the down and upper side of the microporous PET membrane for 30 min at room temperature and 2 hours at 37 °C, respectively. Excess fibronectin was removed and wells washed with phosphate buffer saline (PBS). Compounds (10 μM) were added to the complete media (lower chambers) or serum-free media (upper chambers). 0.1% DMSO was used as a control. 2 × 10^4 cells were plated per well. In additional experimental setting, inhibitors were added only to the upper chambers 3 hours after experiment started in order to measure their impact only on the cell migration and not the adhesion. Impedance data, reported as cell index, were measured continuously every 15 min for 72 hours and then analyzed with the RTCA Software (ACEA Biosciences, Inc.). Results are normalized to cells treated with DMSO.

[9] = target: T3, cathepsin X; assay: Determination of Ki values and inhibition mechanism against cathepsin X (Abz-FEK(Dnp)-OH substrate); type: biochemical; set-up: made in house; host or cells: Pichia pastoris; settings: for Inhibition mechanism: ENZO
Procedure: as §1, §2, §3, §4

[10] = tested on: PC-12 cells; assay: Neurite outgrowth assay; type: cell-based, rat; settings: 10 µM; 48 h; vs DMSO control
Procedure: as §5
PC-12 cells were seeded in 96-well plates (4 × 10^4/well) coated with poly-L-lysine. Next day, the cells were treated with compounds (10 µM) in serum-free medium, and neurite outgrowth was measured after 48 h using Neurite Outgrowth Staining Kit (Molecular Probes), in accordance with the manufacturer’s instructions. Fluorescence intensity was measured at 525 nm with excitation at 483 nm for cell viability indicator and at 567 nm with excitation at 554 nm for cell membrane indicator. Results, expressing increased neurite outgrowth, were normalized to cells treated with DMSO.

[11] = target: cathepsin X; settings: cited from earlier work
[12] = target: T3, cathepsin X; assay: Reversibility of binding: washout experiment and dilution method; type: biochemical; set-up: made in house; host or cells: Pichia pastoris
Procedure: The reversibility of binding was determined in two separate experiments. In the washout experiment[47] 20 nM cathepsin X was mixed with a saturating level of the inhibitor (100 μM) and incubated for 1 hour at room temperature. One half of the reaction mixture was assayed for activity and the other half was diluted approximately 200000-fold with assay buffer prior to the activity assay. Step-wise dilution and concentration was performed on a Centricon (Millipore) with 10 kDa cut-off. In the dilution method[19] cathepsin X (5 μM) was incubated with inhibitor (100 μM). Half the reaction mixture was diluted 100-fold with the assay buffer containing substrate and immediately assayed for activity, the other half was incubated for 2 hours, diluted 100-fold and then assayed for activity.

[13] = screening at 50 μM compound, read-out: relative inhibition of cathepsin X
[14] = first group, SigmaPlot non-linear regression at 3 different substrate concentrations
[15] = second group, 50 μM compound, 1 h preincubation, read-out: % inhibition (1 h preincubation)
[16] = second group, progress curve analysis with ENZO

T1 sequence (P07711 114-333): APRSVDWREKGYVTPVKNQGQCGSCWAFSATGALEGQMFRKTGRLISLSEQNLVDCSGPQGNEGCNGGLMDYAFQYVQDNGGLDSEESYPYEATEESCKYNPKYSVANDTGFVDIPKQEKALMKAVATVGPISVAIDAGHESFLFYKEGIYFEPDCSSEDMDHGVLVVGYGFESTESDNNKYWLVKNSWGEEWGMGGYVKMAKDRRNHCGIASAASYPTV

SMILES | Ki [1] [µM] | Ki [2] [µM] | inhibition at 50 µM [3, 13] [%] | inhibition of cathepsin X enzyme activity in lysates of PC-3 cells [4] | Ki [5] [µM] | Ki [6] [µM] | Ki [7] [µM] | inhibition of PC-3 cell migration [8] | Ki [9, 14] [µM] | increase of neurite outgrowth [10] | inhibition at 10 µM [8] [%] | kinact/Ki [11] [M^–1s^–1] | preference for cathepsin X over cathepsins B or L [11] [fold] | Ki Cathepsin L [1] | inhibition at 50 µM [3, 15] [%] | Ki Cathepsin S [6] | Inhibition mechanism ([9]; second group) | Ki [9, 16] [µM] | cathepsin X activity after washout ([12]; 1-hour pre-incubation, 100 μM inhibitor, 200000-fold dilution, 10 kDa cut-off) | enzyme activity recovered after 100-fold rapid dilution ([12]; dilution method, cathepsin X 5 μM, inhibitor 100 μM)
Cc1[nH]c2ccccc2c1C(=O)CSc1n[nH]c(N)n1 [Compound 1, 2-((5-Amino-1H-1,2,4-triazol-3-yl)thio)-1-(2-methyl-1H-indol-3-yl)ethanone] | 975 ± 101 | 371 ± 97.9 | 60 to 75 | trend toward less potent inhibition | 1870 ± 240 | > 1000 | > 1000 | failed to affect cell migration | 38.4 ± 0.2 |  |  |  |  |  |  |  |  |  |  | 
Nc1nc(SCC(=O)c2ccc3c(c2)OCCO3)n[nH]1 [Compound 2, 2-((5-Amino-1H-1,2,4-triazol-3-yl)thio)-1-(2,3-dihydrobenzo[b][1,4]dioxin-6-yl)ethanone] | 902 ± 89.7 | 210 ± 11 | 60 to 75 |  | 483.1 ± 0.6 | 463 ± 42.9 | 392 ± 121 |  | 29.2 ± 2.44 | statistically significant increase | 15 to 30 |  |  |  |  |  |  |  |  | 
CCCNC(=O)C1OC1C(=O)NC(C(=O)O)C(C)CC (stereo not drawn) [nPrNH-(2 S,3 S)tEps-Ile-OH] |  |  |  |  |  |  |  |  |  |  |  | 225 | 10 |  |  |  |  |  |  | 
Cc1ccccc1-n1cnnc1SCC(=O)c1ccc2c(c1)OCCO2 [Compound 20, 1-(2,3-Dihydrobenzo[b][1,4]dioxin-6-yl)-2-((4-(o-tolyl)-4H-1,2,4-triazol-3-yl)thio)ethan-1-one] |  | 83.1 ± 7 | > 70 |  | > 500 |  | 301 ± 214 |  |  | statistically significant increase | 15 to 30 |  |  | n.i. | 79 | n.i. | competitive | 8.78 ± 0.39 |  | 
CC(C)C[C@H](NC(=O)[C@H]1O[C@@H]1C(=O)O)C(=O)NCCCCN=C(N)N [Compound E-64] |  |  |  |  |  |  |  |  |  |  |  | 775 |  |  |  |  |  |  | retained cathepsin X inhibition | remained inhibited
Cn1cnc(SCC(=O)c2ccc3c(c2)OCCO3)n1 [Compound 12, 1-(2,3-Dihydrobenzo[b][1,4]dioxin-6-yl)-2-((1-methyl-1H-1,2,4-triazol-3-yl)thio)ethanone] | > 500 | 120.5 ± 0.9 | > 70 | trend toward less potent inhibition | > 500 |  | > 500 | failed to affect cell migration |  |  |  |  |  |  | 82 | n.i. | competitive | 5.88 ± 0.21 |  | 
